{"source": "PubChem BioAssay AID2305", "about": "(GlaxoSmithKline (GSK), 2010)", "data": [{"test_system": "P. falciparum 3D7 growth, pLDH absorbance", "test": "P. falciparum 3D7 growth inhibition, dose response, strain 3D7 (AID 2305)", "units": {"IC50": "nM"}, "values": [{"smiles": "COc1ccc(-c2ccc(CNC(=O)c3cccc(C#N)c3)c(F)c2)cc1CN1CCCN(C)CC1", "IC50": 800}, {"smiles": "Cc1cc(C)c2nc(N3CCC(C(=O)NCCCN4CCC(N5CCCCC5)CC4)CC3)sc2c1", "IC50": 840}, {"smiles": "N#Cc1ccc(NC(=O)NC2CCN(CCCCCNC(=O)/C=C/c3ccc(Cl)c(Cl)c3)CC2)cc1", "IC50": 800}, {"smiles": "Cc1[nH]c(C)c(-c2ccc(Oc3cccc(OC(F)(F)F)c3)cc2)c(=O)c1Cl", "IC50": 680}, {"smiles": "CCCN1CCC(c2c[nH]c3ccc(NC(=O)Nc4cccc(Cl)c4Cl)cc23)CC1", "IC50": 810}, {"smiles": "Cc1cccc2[nH]c(-c3ccc(-c4cccc(NC(=O)Nc5cccc(C#N)c5)c4)cc3)nc12", "IC50": 540}, {"smiles": "COc1ccc(N(c2nc(-c3cc(Cl)ccc3Cl)cs2)C2CCNC2)cc1", "note": "(stereo not drawn)", "IC50": 870}, {"smiles": "Oc1ccc(CCNCCCCCCNCCc2ccc(Br)cc2)cc1O", "IC50": 1020}, {"smiles": "COc1ccccc1-c1csc(C(=O)NCC2CCN(Cc3ccc(C(C)C)cc3)C2)c1", "note": "(stereo not drawn)", "IC50": 1350}, {"smiles": "CC(C)CNCc1ccc(-c2ccc(CN(C(=O)NC3CCCCC3)C3CCN(Cc4ccccc4)CC3)cc2)cc1", "IC50": 780}, {"smiles": "Cc1cc(N(CCN2CCCCC2)CCN2CCCCC2)nc(Nc2ccc(Cl)cc2)n1", "IC50": 270}, {"smiles": "COC(=O)c1ccc(NC(=O)Nc2cccc(CCNCc3ccccc3)c2)cc1", "IC50": 870}, {"smiles": "N#Cc1ccc(-c2ccc(C(=O)NC3CCN(CCN4CCc5c(cccc5C(F)(F)F)C4)CC3)cc2)cc1", "IC50": 700}, {"smiles": "N#Cc1cccc(-c2cccc(C(=O)NC3CCC(CCN4CCc5ccc(C#N)cc5CC4)CC3)c2)c1", "note": "(stereo not drawn)", "IC50": 260}, {"smiles": "CCOc1cc(C(=O)Nc2ccccc2N2CCN(S(C)(=O)=O)CC2)cc(OCC)c1OCC", "IC50": 650}, {"smiles": "O=C(Nc1ccc(N2CCN(Cc3cccc(F)c3)CC2)cc1)c1cccs1", "IC50": 680}, {"smiles": "CCN(CC)CCCNC(=O)/C(=C/C=C/c1cc2cc(Cl)c(Cl)cc2[nH]1)OC", "IC50": 1160}, {"smiles": "CCCC[C@@H](C(=O)NCCc1ccc(Cl)cc1)N1C(=O)CCC1C(=O)Nc1ccc(Cl)c(Cl)c1", "note": "(stereo partly drawn)", "IC50": 870}, {"smiles": "CCN(CC)C(=S)N=Nc1c(O)[nH]c2c(C)cccc12", "IC50": 860}, {"smiles": "CN(CCS(C)(=O)=O)Cc1ccc(-c2ccc3ncnc(Nc4ccc(OCc5cccc(F)c5)c(Cl)c4)c3c2)o1", "IC50": 680}, {"smiles": "Oc1cccc(-c2nc3ccc(C4=N[C@H]5CCCC[C@H]5N4)cc3[nH]2)c1", "IC50": 590}, {"smiles": "CCN(CCCN1CCCCC1)c1cc(C)nc(Nc2ccc3c(c2)CCC3)n1", "IC50": 390}, {"smiles": "Cc1ccc(CN2CCCCC(NC(=O)c3cc4ccccc4s3)C2)cc1", "note": "(stereo not drawn)", "IC50": 900}, {"smiles": "COc1cc(C(=O)N2CCN(C(C)C)CC2)ccc1CN(C)CCCN1CCN(c2cccc(Cl)c2Cl)CC1", "IC50": 780}, {"smiles": "CCOC(=O)C1=C(C)N=c2sc(=Cc3cc(Cl)ccc3O)c(=O)n2C1c1cc(OC)c(OC)cc1Br", "note": "(stereo not drawn)", "IC50": 990}, {"smiles": "Brc1cc(Br)c2c(c1)C(NCCCNC1CCNc3c(Br)cc(Br)cc31)CCN2", "note": "(stereo not drawn)", "IC50": 820}, {"smiles": "CCOc1cc(C)ccc1N1CCN(CCCCNC(=O)c2ccc(NC(=O)c3ccc(Cl)cc3)cc2)CC1", "IC50": 640}, {"smiles": "O=C(Nc1ccccc1)N1CCOC(CCN2CCC(F)(F)CC2)(c2ccc(Cl)c(Cl)c2)C1", "note": "(stereo not drawn)", "IC50": 190}, {"smiles": "Cc1nnc(Sc2ncnc3scc(-c4ccc(F)cc4)c23)s1", "IC50": 810}, {"smiles": "O=C(Nc1cccc(CN2CCCN(Cc3ncc[nH]3)CC2)c1)c1ccc2ccccc2c1", "IC50": 630}, {"smiles": "Cn1ccnc1CNC(=O)c1ccc(-c2cccc(-c3nc4ccc(C(F)(F)F)cc4[nH]3)c2)cc1", "IC50": 720}, {"smiles": "NC1=NC(c2ccccc2)(c2ccccc2)C(=O)N1CC1CCC1", "IC50": 750}, {"smiles": "O=C(Nc1ccc(Cl)c(Cl)c1)N1CCC(CNCc2cccc([N+](=O)[O-])c2)CC1", "IC50": 980}, {"smiles": "O=C(NC1CCN(c2ccnc(Nc3ccc(F)cc3)n2)C1)c1cc2ccccc2s1", "note": "(stereo not drawn)", "IC50": 720}, {"smiles": "O=C(Nc1ccc2c(c1)CCC2)N[C@H]1CCN(Cc2ccc(OCCCN3CCCCC3)cc2)C1", "IC50": 860}, {"smiles": "COc1ccc(CNC2CCCC2)cc1-c1ccc(S(=O)(=O)NCCN2CCCC2)s1", "IC50": 800}, {"smiles": "COc1ccc(C2CC(=O)C3=C(C2)NC(C)=C(C(=O)OC2CCCC2)C3c2ccc(O)cc2)cc1OC", "note": "(stereo not drawn)", "IC50": 570}, {"smiles": "FC(F)(F)c1ccc2nc(-c3ccc(-c4cccc(CNCCc5cccnc5)c4)s3)[nH]c2c1", "IC50": 170}]}]}
